The values below are quoted from earlier work in patent US20200338088A1, “Methods for Treating Neutrophilic Dermatoses with SYK Inhibitors” (Rush University Medical Center, priority 2018, published 2020).

Structures are written as SMILES.

This data set deals with rat collagen-induced arthritis model. As to conditions: daily oral dose of 10 mg/kg (10 μg/g), after 7 days.

Consider `c1cn2cc(-c3ccc4cn[nH]c4c3)nc(Nc3ccc(N4CCOCC4)cc3)c2n1` [GS-9973, 6-(1H-indazol-6-yl)-N-(4-morpholin-4-ylphenyl)imidazo[1,2-a]pyrazin-8-amine], for which the ankle inflammation entry is listed as “significantly inhibited ankle inflammation”.
